Among the data in patent US9580418B2, “Bicyclic aromatic carboxamide compounds useful as Pim kinase inhibitors” (Incyte Corporation, priority 2014, dated 2017) are IC50 values, retold here.

Assay [1] concerns the target Pim-1 (Homo sapiens (Human), UniProt P11309). The experiment in a line: Pim-1 kinase assay (Pim enzyme assays, Example A). It is filed as biochemical. Particulars: 1 mM ATP, BAD peptide substrate; read-out: PIM1 IC50. Here is the method:
(§1) Pim-1 and Pim-3 kinase assays-20 μL reactions were run in white 384 well polystyrene plates dotted with 0.8 μL compound/DMSO in the assay buffer (50 mM Tris, pH 7.5, 0.01% Tween-20, 5 mM mgCl2, 0.01% BSA, 5 mM DTT), containing 0.05 μM Biotin-labeled BAD peptide substrate (AnaSpec 62269), 1 mM ATP, and 2.5 pM (Pim-1, Invitrogen PV3503) or 1.25 pM (Pim-3, Millipore 14-738) enzyme for 1 h at 25° C. Reactions were stopped by addition of 10 μL STOP Buffer (150 mM Tris, pH=7.5, 150 mM NaCl, 75 mM EDTA, 0.01% Tween-20, 0.3% BSA,) supplemented with Phospho-Bad (Ser112) Antibody (Cell Signaling 9291) diluted 666-fold, and Streptavidin donor beads (PerkinElmer 6760002) along with Protein-A acceptor beads (PerkinElmer 6760137) at 15 μg/mL each. Supplementation of the STOP buffer with beads and stopping the reactions were done under reduced light. Prior to the stopping reactions STOP buffer with beads was preincubated for 1 h in the dark at room temperature. After stopping the reactions, plates were incubated for 1 h in the dark at room temperature before reading on a PHERAstar FS plate reader (BMG Labtech) under reduced light.

Assay [2] has as its target Pim-2 (Homo sapiens (Human), UniProt Q9P1W9). The experiment in a line: Pim-2 kinase assay (Pim enzyme assays, Example A). The format is biochemical. Particulars: 1 mM ATP, CREBtide peptide substrate; read-out: PIM2 IC50. Here is the method:
Pim-2 kinase assay-20 μL reactions were run in white 384 well polystyrene plates dotted with 0.8 μL compound/DMSO in the assay buffer (50 mM Tris, pH 7.5, 0.01% Tween-20, 5 mM mgCl2, 0.01% BSA, 5 mM DTT), containing 0.05 μM Fluorescein-labeled CREBtide peptide substrate (Invitrogen PV3508), 1 mM ATP, and 1 nM enzyme (Invitrogen PV3649) for 2 h at 25° C. Reactions were stopped by addition of 10 μL TR-FRET Dilution Buffer (Invitrogen PV3574) with 30 mM EDTA and 1.5 nM LanthaScreen Tb-CREB pSer133 antibody (Invitrogen PV3566). After 30 min. incubation at room temperature, plates were read on a PHERAstar FS plate reader (BMG Labtech).

Assay [3] addresses Pim-3 (Homo sapiens (Human), UniProt Q86V86). The experiment in a line: Pim-3 kinase assay (Pim enzyme assays, Example A). It is filed as biochemical. To be noted: 1 mM ATP, BAD peptide substrate; read-out: PIM3 IC50. How it is done:
as §1

Assay [4] deals with pBAD in KMS.12.BM cells. Nature of the assay: Pim pBAD signaling assay in KMS.12.BM cells (Example B). It is filed as cell-based. Particulars: Homo sapiens, 2.5 h incubation, pBAD ELISA. Here is the method: KG-1A cells are purchased from ATCC (Manassas, Va.) and KMS.12.BM cells are purchased from NIBIO, JCRB cell bank (Tokyo, Japan) and maintained in the culture mediums recommended, RPMI, 10% FBS and IMDM 20% FBS (Mediatech, Manassas, Va.) respectively. To measure the pBAD inhibitory activity of the compounds, both cell lines are plated with the culture medium (1×10^6/well/100 μL for KG1A and 4×10^5 cells/well/in 100 μL for KMS12BM) into 96-well V bottom polypropylene plates (Matrix, Thermo Fisher, USA) and incubated 30 min. at 37° C. to normalize cell signaling from handling. Test compounds are added at an appropriate concentration range and further incubated for 2.5 h for KMS.12.BM cells and 4 h for KG1-A cells. Plates are centrifuged at 2000 RPM for 10 min. and supernatants aspirated. 100 μL lysis buffer with protease inhibitors (Cell Signaling Technologies, Danver, Mass., Sigma, St Louis Mo., EMD, USA) is added to the pellets, mixed well and set on ice for 30 min. Lysates are frozen overnight at −80° C. To measure the pBAD activity, a Cell Signaling ELISA kit (Cell Signaling Path Scan phosphor pBAD ELISA) is utilized. 50 μL of the lysate is tested per the ELISA protocol and the data analysis is performed by software on a SpectrMax5 plate reader (Molecular Devices, Sunnyvale, Calif.). IC50 determination is performed by fitting the curve of percent inhibition versus the log of the inhibitor concentration using the GraphPad Prism 5.0 software.
In general terms: ELISA stands for enzyme-linked immunosorbent assay.

Chain of Pim-1 (P11309 whole entry): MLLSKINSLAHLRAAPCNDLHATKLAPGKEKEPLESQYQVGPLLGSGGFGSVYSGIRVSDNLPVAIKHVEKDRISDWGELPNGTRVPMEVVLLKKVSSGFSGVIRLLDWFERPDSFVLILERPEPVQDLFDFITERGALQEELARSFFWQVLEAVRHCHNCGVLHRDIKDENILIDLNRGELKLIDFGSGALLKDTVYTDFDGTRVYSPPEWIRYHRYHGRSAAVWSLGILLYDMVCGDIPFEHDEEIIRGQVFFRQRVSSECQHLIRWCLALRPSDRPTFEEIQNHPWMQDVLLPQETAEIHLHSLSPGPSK
Chain of Pim-2 (Q9P1W9 whole entry): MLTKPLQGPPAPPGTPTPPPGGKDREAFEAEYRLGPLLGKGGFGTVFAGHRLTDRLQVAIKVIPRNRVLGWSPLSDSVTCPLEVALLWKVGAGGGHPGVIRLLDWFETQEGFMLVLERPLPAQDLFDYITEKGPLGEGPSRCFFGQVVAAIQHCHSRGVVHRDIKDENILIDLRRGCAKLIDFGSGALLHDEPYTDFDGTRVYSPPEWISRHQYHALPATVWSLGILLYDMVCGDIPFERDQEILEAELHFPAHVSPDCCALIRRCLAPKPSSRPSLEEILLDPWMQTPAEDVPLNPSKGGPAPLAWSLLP

By IC50 is commonly meant the point on the concentration scale where inhibition reaches its midpoint. As to `C[C@@H]1C[C@H](N)CN(c2ccncc2NC(=O)c2ccc3ccc(N4CCOCC4)cc3n2)C1` [Example 13, N-{4-[(3S,5R)-3-Amino-5-methylpiperidin-1-yl]pyridin-3-yl}-7-morpholin-4-ylquinoline-2-carboxamide], the concentration for half-maximal inhibition (IC50) in assay [1] was at most 10 nM; in assay [2], at most 100 nM; in assay [3] it was at most 10 nM; in assay [4] it was at most 50 nM.

As to `C[C@H]1CN(c2ccncc2NC(=O)c2ccc3ccc(N4CCC5(CCOCC5)CC4)cc3n2)C[C@@H](N)[C@@H]1O` [Example 14, N-{4-[(3R,4R,5S)-3-Amino-4-hydroxy-5-methylpiperidin-1-yl]pyridin-3-yl}-7-(3-oxa-9-azaspiro[5.5]undec-9-yl)quinoline-2-carboxamide], the IC50 in assay [1] is at most 10 nM; in assay [2] it was at most 100 nM; in assay [3], at most 10 nM; in assay [4] it was 50 to 250 nM.

Take `C[C@@H]1C[C@H](N)CN(c2ccncc2NC(=O)c2ccc3ccc(N4CCC5(CCOCC5)CC4)cc3n2)C1` [Example 15, N-{4-[(3S,5R)-3-Amino-5-methylpiperidin-1-yl]pyridin-3-yl}-7-(3-oxa-9-azaspiro[5.5]undec-9-yl)quinoline-2-carboxamide]: the IC50 was at most 10 nM in assay [1], 100 to 1000 nM in assay [2], at most 10 nM in assay [3] and 50 to 250 nM in assay [4].

As to `C[C@H]1CN(c2ccncc2NC(=O)c2ccc3ccc(N4CCC(C#N)CC4)cc3n2)C[C@@H](N)[C@@H]1O` [Example 16, N-{4-[(3R,4R,5S)-3-Amino-4-hydroxy-5-methylpiperidin-1-yl]pyridin-3-yl}-7-(4-cyanopiperidin-1-yl)quinoline-2-carboxamide], the IC50 is at most 10 nM in assay [1], at most 100 nM in assay [2], at most 10 nM in assay [3] and at most 50 nM in assay [4].

In the case of `C[C@@H]1C[C@H](N)CN(c2ccncc2NC(=O)c2ccc3ccc(N4CCC(C#N)CC4)cc3n2)C1` [Example 17, N-{4-[(3S,5R)-3-Amino-5-methylpiperidin-1-yl]pyridin-3-yl}-7-(4-cyanopiperidin-1-yl)quinoline-2-carboxamide], the IC50 in assay [1] is at most 10 nM; in assay [2], 100 to 1000 nM; in assay [3], at most 10 nM; in assay [4], 50 to 250 nM.

Take `C[C@H]1CN(c2ccncc2NC(=O)c2ccc3ccc(N4CCN(C)CC4)cc3n2)C[C@@H](N)[C@@H]1O` [Example 18, N-{4-[(3R,4R,5S)-3-Amino-4-hydroxy-5-methylpiperidin-1-yl]pyridin-3-yl}-7-(4-methylpiperazin-1-yl)quinoline-2-carboxamide]: the IC50 in assay [1] is at most 10 nM; in assay [2] it was 100 to 1000 nM; in assay [3], at most 10 nM; in assay [4], 50 to 250 nM.

As to `C[C@@H]1C[C@H](N)CN(c2ccncc2NC(=O)c2ccc3ccc(N4CCN(C)CC4)cc3n2)C1` [Example 19, N-{4-[(3S,5R)-3-Amino-5-methylpiperidin-1-yl]pyridin-3-yl}-7-(4-methylpiperazin-1-yl)quinoline-2-carboxamide], the IC50 is at most 10 nM in assay [1], 100 to 1000 nM in assay [2], at most 10 nM in assay [3] and 250 to 2000 nM in assay [4].

Regarding `C[C@H]1CN(c2ccncc2NC(=O)c2ccc3ccc(N4CCC(c5ccncc5)CC4)cc3n2)C[C@@H](N)[C@@H]1O` [Example 20, N-{4-[(3R,4R,5S)-3-Amino-4-hydroxy-5-methylpiperidin-1-yl]pyridin-3-yl}-7-(4-pyridin-4-ylpiperidin-1-yl)quinoline-2-carboxamide], the IC50 is at most 10 nM in assay [1], at most 100 nM in assay [2], at most 10 nM in assay [3] and 50 to 250 nM in assay [4].

As for `C[C@@H]1C[C@H](N)CN(c2ccncc2NC(=O)c2ccc3ccc(N4CCC(c5ccncc5)CC4)cc3n2)C1` [Example 21, N-{4-[(3S,5R)-3-Amino-5-methylpiperidin-1-yl]pyridin-3-yl}-7-(4-pyridin-4-ylpiperidin-1-yl)quinoline-2-carboxamide], the IC50 was at most 10 nM in assay [1], 100 to 1000 nM in assay [2], at most 10 nM in assay [3] and 50 to 250 nM in assay [4].

As to `CCN1CCN(c2ccc3ccc(C(=O)Nc4cnccc4N4C[C@@H](N)[C@H](O)[C@@H](C)C4)nc3c2)CC1=O` [Example 22, N-{4-[(3R,4R,5S)-3-Amino-4-hydroxy-5-methylpiperidin-1-yl]pyridin-3-yl}-7-(4-ethyl-3-oxopiperazin-1-yl)quinoline-2-carboxamide], the IC50 in assay [1] is at most 10 nM; in assay [2], at most 100 nM; in assay [3], at most 10 nM; in assay [4], at most 50 nM.

With `CCN1CCN(c2ccc3ccc(C(=O)Nc4cnccc4N4C[C@H](C)C[C@H](N)C4)nc3c2)CC1=O` [Example 23, N-{4-[(3S,5R)-3-Amino-5-methylpiperidin-1-yl]pyridin-3-yl}-7-(4-ethyl-3-oxopiperazin-1-yl)quinoline-2-carboxamide], the IC50 was at most 10 nM in assay [1], at most 100 nM in assay [2], at most 10 nM in assay [3] and at most 50 nM in assay [4].

On to `COC1CCN(c2ccc3ccc(C(=O)Nc4cnccc4N4C[C@@H](N)[C@H](O)[C@@H](C)C4)nc3c2)CC1` [Example 24, N-{4-[(3R,4R,5S)-3-Amino-4-hydroxy-5-methylpiperidin-1-yl]pyridin-3-yl}-7-(4-methoxypiperidin-1-yl)quinoline-2-carboxamide], for which the IC50 in assay [1] is at most 10 nM; in assay [2] it was at most 100 nM; in assay [3] it was at most 10 nM; in assay [4], at most 50 nM.

For the molecule `COC1CCN(c2ccc3ccc(C(=O)Nc4cnccc4N4C[C@H](C)C[C@H](N)C4)nc3c2)CC1` [Example 25, N-{4-[(3S,5R)-3-Amino-5-methylpiperidin-1-yl]pyridin-3-yl}-7-(4-methoxypiperidin-1-yl)quinoline-2-carboxamide], the IC50 in assay [1] was at most 10 nM; in assay [2], at most 100 nM; in assay [3] it was at most 10 nM; in assay [4], at most 50 nM.

Consider `C[C@H]1CN(c2ccncc2NC(=O)c2ccc3ccc(N4CCC(N5CCOCC5)CC4)cc3n2)C[C@@H](N)[C@@H]1O` [Example 26, N-{4-[(3R,4R,5S)-3-Amino-4-hydroxy-5-methylpiperidin-1-yl]pyridin-3-yl}-7-(4-morpholin-4-ylpiperidin-1-yl)quinoline-2-carboxamide], for which the IC50 was at most 10 nM in assay [1], at most 100 nM in assay [2], at most 10 nM in assay [3] and 50 to 250 nM in assay [4].

With `C[C@@H]1C[C@H](N)CN(c2ccncc2NC(=O)c2ccc3ccc(N4CCC(N5CCOCC5)CC4)cc3n2)C1` [Example 27, N-{4-[(3S,5R)-3-Amino-5-methylpiperidin-1-yl]pyridin-3-yl}-7-(4-morpholin-4-ylpiperidin-1-yl)quinoline-2-carboxamide], the IC50 in assay [1] is at most 10 nM; in assay [2], 100 to 1000 nM; in assay [3], at most 10 nM; in assay [4] it was 50 to 250 nM.

For the molecule `C[C@H]1CN(c2ccncc2NC(=O)c2ccc3ccc(N4CCCC4)cc3n2)C[C@@H](N)[C@@H]1O` [Example 30, N-{4-[(3R,4R,5S)-3-Amino-4-hydroxy-5-methylpiperidin-1-yl]pyridin-3-yl}-7-pyrrolidin-1-ylquinoline-2-carboxamide], the IC50 in assay [1] was at most 10 nM; in assay [2], at most 100 nM; in assay [3], at most 10 nM; in assay [4], 50 to 250 nM.
